Patent publication US20150005252A1, “COMBINATION THERAPY FOR THE TREATMENT OF CANCER” (TILTAN PHARMA LTD., priority 2012, published 2015)

Tested on: Mouse pancreatic-adenocarcinoma cell-line PANC02
Assay: Orthotopic PANC02 pancreatic tumor model in mice, IP treatment, tumors excised and weighed on Day 18
Assay type: in vivo
Description: Total study duration was 18 days (Treatment period: 14 days, i.e. two weekly treatment schedules). Tumour cells inoculation day was registered as “Day 1”. The compositions were administered IP six days per week starting on Day 4.
Tumor Cells: Mouse pancreatic-adenocarcinoma cell-line PANC02 (a kind gift from Dr A. Marten, University of Heidelberg, Germany).
CB6F1 female mice, 21.1 g average body weight, 10 mice per treatment group.
Five test groups were conducted, each administered with a different treatment composition and schedule as detailed in Tables 1 and 2 below.
Treatment Groups were administered with either vehicle alone (Group 1), a combination of TL-118 and Gemcitabine (Groups 2 and 3), Gemcitabine alone 9 Group 4) and TL-118 alone (Group 5).
• In Groups 2 and 5 the 1st day of TL-118 was Wed. while for Group 3 1st day of TL-118 was Thur. No treatment was given on Sat (see also Table 3 below).
In Group 2 the treatment started with TL-118 and Gemcitabine was administered on the following day while in Group 3 the treatment started with Gemcitabine administration then TL-118 initiation on the following day (see Table 3 below).
The cells were removed from flasks using trypsin. 60 million (60×10^6) cells were counted and re-suspended in 4.5 ml phosphate buffered saline. Before cell spin-down, cells were strained through cell strainer according to the following procedure: • 1. Strainer was placed on 50 ml tube; • 2. Strainer was washed with 5 ml phosphate buffered saline; • 3. Cells detached from flasks in RPMI growth medium were poured over strainer; • 4. Strainer was washed with 5 ml phosphate buffered saline.
Tumor cells (4×10^5 cells, in 30 μl, per animal) are injected into the pancreas using needle 30 G. Tumor cells inoculation to animals was performed under anesthesia (Ketamine 85 mg/kg & Xylasine 5 mg/kg).
Compositions were administered IP using needle 27 G. Compositions were administered daily from Day 4 for duration of […] (see Table I). Body weights measurements (twice weekly) were used for dosing volume calculations from recent measurement. […]

Nc1ccn([C@@H]2O[C@H](CO)[C@@H](O)C2(F)F)c(=O)n1 [Gemcitabine, 4-amino-1-(2-deoxy-2,2-difluoro-β-D-erythro-pentofuranosyl)pyrimidin-2(1H)-on]
representative tumors found at the end of treatment schedule (FIGS. 5A-5E, compared with large tumors in vehicle Group 1): smaller volume tumors | End Result Effect: tumor size relative to vehicle (Table 3, end of study, vehicle: very large tumors): small tumors relative | percentage of tumor bearing animals (end of study (Day 18), CB6F1 female mice, IP, FIG. 1): about 80%
